Read-outs that look alike come from different tables or passages of the source.
Assays:
[1] = test system: conscious spontaneously hypertensive rats (SHR); assay: hypotensive action in conscious spontaneously hypertensive rats (SHR); type: in vivo; settings: 10 mg/kg orally, starved overnight
Method: Selected compounds of the present invention were tested for their hypotensive action in conscious spontaneously hypertensive rats (SHR).
A group of 17 to 20-week old male SHR were anesthetized with ether and a cannula was inserted into the left femoral artery. At least one day after the operation, the cannula was connected to a pressure transducer and the blood pressure was measured continuously under conscious and unrestrained condition, thereby obtaining the data shown in Table 4. Each of the test compounds as a clear suspension in 0.5% CMC-Na was administered orally at a dose of 10 mg/kg (body weight) to each animal which was starved overnight.

[2] = acute toxicity (LD50) in male mice; settings: mouse, in vivo
Description: The acute toxicity (LD50) data of selected compounds of the present invention as administered to two groups of male mice were obtained and the results are shown in Table 5. One group of mice which received peroral administration had been starved overnight. Each of the test compounds was suspended in 0.5% CMC-Na for peroral administration, or dissolved in dimethyl sulfoxide and diluted with physiological saline solution for intravenous injection.

[3] = test system: vascular resistance of the vertebral artery; assay: vascular resistance of the vertebral artery in anesthetized dogs; type: in vivo; settings: intravenous injection; for ED30: Canis lupus familiaris, vertebral artery vascular resistance
Method: The pharmacological effect (ED30) of selected 2-chloro-1,4-dihydropyridine derivatives of the present invention with respect to the vascular resistance of the vertebral artery in anesthetized dogs was treated by the following procedures.
Adult dogs of either sex (7-14 kg in body weight) were anesthetized with at first thiopental sodium (35 mg/kg, intraperitoneal), anesthetized with urethane (400 mg/kg, intravenous) and α-chloalose (60 mg/kg, intravenous) and kept under artificial respiration throughout the experiment. After thoracotomy at the left first intercostal space, the vertebral artery was exposed and blood flow was measured with an intracorporeal flow probe connected to an electromagnetic flowmeter (MF-27, Nihon Kohden).
At the same time, continuous measurement of the following parameters was made: systemic blood pressure (mean pressure) at the right femoral artery, the limb lead II ECG, the heart rate with a tachometer triggered by the R wave of ECG, and the vascular resistance determined by loading an electronic divider (EO-601 G, Nihon Kohden) with the mean values of blood pressure and vertebral artery blood flow. All of these parameters were recorded simultaneously on a polygraph (RM-600, Nihon Kohden).
All the test compounds were injected through a cannula inserted into the femoral vein.
The ED30 (μg/kg) values obtained by intravenous injection and the values of T1/2 (min) (the time to reach 50% of the resistance drop) are shown in Table 3, wherein the Compound Numbers are keyed to the Example Numbers.

[4] = test system: isolated guinea pig hearts (coronary artery); assay: coronary vascular dilative effect in isolated guinea pig hearts (Langendorff); parameters: species or system Hartley guinea pigs; settings: isolated hearts perfused at 37° C., 0.1 ml of diluted solution into the coronary artery
Method: The coronary vascular dilative effect of selected 2-chloro-1,4-dihydropyridine derivatives of the present invention was tested.
Hartley guinea pigs (weight 400-500 g) were killed by a blow on the head and their hearts were immediately isolated. The hearts were perfused with Krebs-Henseleit solution bubbled with a mixture of 95% O2 +5% CO2 and maintained at 37° C. at a constant rate of 6 ml/minute according to Langendorff's method [J. Pharmacol. Methods 2, 143 (1979)]. The perfusion pressure was measured continuously by a pressure transducer. Samples were prepared by emulsifying 1 mg of a test compound in 1 ml of a mixture of dimethylsulfoxide and physiological saline solution (1:9) and diluting with physiological saline solution to the predetermined concentration. 0.1 ml of the diluted solution was administered into the coronary artery via rubber tube connected to an aorta cannula to obtain ED50 (μg/heart) data as shown in Table 2. The numbers of the compounds in the Table correspond respectively to those of the working examples described above.

[5] = iv, male mice, read-out: LD50 i.v.
[6] = po, male mice starved overnight, suspended in 0.5% CMC-Na, read-out: LD50 p.o.

Q: What does the source list for COC(=O)C1=C(C)NC(C)=C(C(=O)OCCN(C)Cc2ccccc2)C1c1cccc([N+](=O)[O-])c1 (stereo not drawn) [Nicardipine, reference compound]?
A: Blood pressure drop, Maximum drop [1]: 39%; Blood pressure drop, 6 hours [1]: 10-20%; LD50 [2, 5]: 12.2 mg/kg; LD50 [2, 6]: 455 mg/kg

Q: With COC(=O)C1=C(C)NC(Cl)=C(C(=O)OC)C1c1cccc([N+](=O)[O-])c1 (stereo not drawn) [SUN 4616] as the compound, how does the ED30 [3] read?
A: 0.0012 mg/kg

Q: With COC(=O)C1=C(C)NC(Cl)=C(C(=O)OC)C1c1ccccc1[N+](=O)[O-] (stereo not drawn) [SUN 4671] as the compound, how does the ED30 [3] read?
A: 0.00059 mg/kg

Q: Which ED30 [3] does the source give for COC(=O)C1=C(Cl)NC(C)=C(C(=O)OCCN2CCN(C(c3ccccc3)c3ccccc3)CC2)C1c1cccc([N+](=O)[O-])c1 (stereo not drawn) [SUN 4752, 5-[2-(4-Benzhydrylpiperazin-1-yl)ethyl]oxycarbonyl-2-chloro-3-methoxycarbonyl-6-methyl-4-(3-nitrophenyl)-1,4-dihydropyridine] here?
A: 0.003 mg/kg

Q: What about the “T1/2 (the time to reach 50% of the resistance drop)” value [3] of the same compound?
A: > 30 min

Q: And the “Blood pressure drop, Maximum drop” value [1]?
A: 35%

Q: And the “Blood pressure drop, 6 hours” value [1]?
A: 30%

Q: And the LD50 [2, 5]?
A: 23 to 27 mg/kg

Q: And the LD50 [2, 6]?
A: 1000 mg/kg

Q: For COC(=O)C1=C(Cl)NC(C)=C(C(=O)OCCN(C)Cc2ccccc2)C1c1cccc([N+](=O)[O-])c1 (stereo not drawn) [SUN 5017], which ED30 [3] is on record?
A: 0.0033 mg/kg

Q: What about the “T1/2 (the time to reach 50% of the resistance drop)” value [3] of the same compound?
A: 17.0 min

Q: What does the source list for COC(=O)C1=C(Cl)NC(C)=C(C(=O)OCCN2CCN(C3c4ccccc4-c4ccccc43)CC2)C1c1cccc([N+](=O)[O-])c1 (stereo not drawn) [SUN 5018]?
A: ED30 [3]: 0.0043 mg/kg; T1/2 (the time to reach 50% of the resistance drop) [3]: 15.5 min

Q: For COC(=O)C1=C(Cl)NC(C)=C(C(=O)OCCCCCc2ccccc2)C1c1cccc([N+](=O)[O-])c1 (stereo not drawn) [SUN 5088], which ED30 [3] is on record?
A: 0.0014 mg/kg

Q: What about the “T1/2 (the time to reach 50% of the resistance drop)” value [3] of the same compound?
A: 17.0 min

Q: With COC(=O)C1=C(Cl)NC(C)=C(C(=O)OC(C)C)C1c1cccc([N+](=O)[O-])c1 (stereo not drawn) [SUN 5141] as the compound, how does the ED30 [3] read?
A: 0.00028 mg/kg

Q: And the “T1/2 (the time to reach 50% of the resistance drop)” value [3]?
A: 10.6 min

Q: What about the “Blood pressure drop, Maximum drop” value [1] of the same compound?
A: 51%

Q: And the “Blood pressure drop, 6 hours” value [1]?
A: 33%

Q: What about the LD50 [2, 5] of the same compound?
A: 80 mg/kg

Q: What about the ED50 [4] of the same compound?
A: 0.05 μg/heart

Q: Which ED30 [3] does the source give for COC(=O)C1=C(Cl)NC(C)=C(C(=O)OC2CCCN(Cc3ccc(F)cc3)C2)C1c1cccc([N+](=O)[O-])c1 (stereo not drawn) [SUN 5142, 2-Chloro-5-[1-(4-fluorobenzyl)piperidin-3-yl]oxycarbonyl-3-methoxycarbonyl-6-methyl-4-(3-nitrophenyl)-1,4-dihydroppyridine] here?
A: 0.0028 mg/kg

Q: What about the “T1/2 (the time to reach 50% of the resistance drop)” value [3] of the same compound?
A: > 30 min

Q: And the ED50 [4]?
A: 0.03 μg/heart

Q: What does the source list for CCCCCCCOC(=O)C1=C(C)NC(Cl)=C(C(=O)OC)C1c1cccc([N+](=O)[O-])c1 (stereo not drawn) [SUN 5143]?
A: ED30 [3]: 0.0022 mg/kg; T1/2 (the time to reach 50% of the resistance drop) [3]: 20.5 min; ED50 [4]: 0.02 μg/heart

Q: With COC(=O)C1=C(Cl)NC(C)=C(C(=O)OCCOc2ccccc2)C1c1cccc([N+](=O)[O-])c1 (stereo not drawn) [SUN 5151] as the compound, how does the ED30 [3] read?
A: 0.0036 mg/kg

Q: And the “T1/2 (the time to reach 50% of the resistance drop)” value [3]?
A: 10.5 min

Q: With COC(=O)C1=C(Cl)NC(C)=C(C(=O)OCCc2cccs2)C1c1cccc([N+](=O)[O-])c1 (stereo not drawn) [SUN 5163] as the compound, how does the ED30 [3] read?
A: 0.0093 mg/kg

Q: What about the “T1/2 (the time to reach 50% of the resistance drop)” value [3] of the same compound?
A: 14.0 min

Q: With COC(=O)C1=C(Cl)NC(C)=C(C(=O)OCC2CC2)C1c1cccc([N+](=O)[O-])c1 (stereo not drawn) [SUN 5164] as the compound, how does the ED30 [3] read?
A: 0.00022 mg/kg

Q: For COC(=O)C1=C(Cl)NC(C)=C(C(=O)OC(CN(C)Cc2ccccc2)c2ccccc2)C1c1cccc([N+](=O)[O-])c1 (stereo not drawn) [SUN 5181], which ED30 [3] is on record?
A: 0.0021 mg/kg

Q: With COCCOC(=O)C1=C(C)NC(Cl)=C(C(=O)OC)C1c1cccc([N+](=O)[O-])c1 (stereo not drawn) [SUN 5220] as the compound, how does the ED30 [3] read?
A: 0.0058 mg/kg

Q: And the “T1/2 (the time to reach 50% of the resistance drop)” value [3]?
A: 13.5 min

Q: Which ED30 [3] does the source give for CCOC(=O)C1=C(Cl)NC(C)=C(C(=O)OCCN2CCOCC2)C1c1ccccc1[N+](=O)[O-] (stereo not drawn) [SUN 5252] here?
A: 0.0036 mg/kg

Reference: patent US4824837A, “Novel 1,4-dihydropyridine derivatives, process for preparing the same, and agents for treating disorders of circulatory system” (Suntory Limited, priority 1985, dated 1989)
